Source: patent EP2711007A1, “4-Aminopyrazolo[3,4-d]pyrimidine for use in treating or preventing primary and metastatic breast and prostate cancer” (Institut Univ. de Ciència i Tecnologia, S.A., priority 2012, dated 2014)

Legend:
[1] = system: PNT1A immortalized normal prostate cell line; experiment: Tetrazolium dye proliferation (WST-1) assay, PNT1A; format: cell-based; settings: Homo sapiens, 120 h, 5 days incubation, concentration not given (primary screen 1 microM), mean±SD, read-out: proliferation inhibitory effect compared with 0.1 % DMSO vehicle control group
Method: (§1) Determination of the ability of compound of formula (I) and combinations between compound of formula (I) and certain therapeutic compounds described herein to inhibit the proliferation of target cells was assayed in vitro against breast and prostate tumour cells. The antiproliferative activity was measured through the commercial WST-1 proliferation measurement reagent in a two-step screening procedure: […] MCF-7 and LNCaP cells were purchased from ATCC. PNT1A cells were purchased from ECACC. The cells were grown in a subconfluent condition to maintain a logarithmic growth phase. The cells were dislodged for passage using trypsin-EDTA. The proliferation of the cell lines was evaluated by using the commercial WST-1 proliferation measurement reagent. Cells from exponentially growing cultures were plated on the 96 well plates at the appropriate seeding density in the optimal medium to give logarithmic growth over the course of the assay. The plates with MCF-7 and PNT1A cells were incubated 24h at 37°C in a humidified CO2 atmosphere to allow for recovery from trypsinization before adding of test and control compounds. […] Control compounds Ara-C and Gemcitabine stock solutions were prepared in sterile water. Each test and control compound was diluted twice the final concentration in appropriate media. Half of the final well volume of each dilution was added in six parallels to plates containing cells. […] The plates were returned to 37°C in a humidified CO2 atmosphere and incubated for 5 days. […] Following incubation the absorbance at a wavelength of 450nm was measured from each well using a multilabel counter. The absorbance at wavelength 450nm correlates linearly to number of viable cells in the well. The means and standard deviations for parallel samples were calculated and plotted as a graph.

[2] = system: LNCaP prostate cancer cell line; experiment: Tetrazolium dye proliferation (WST-1) assay, LNCaP; format: cell-based; settings: 5 days incubation; for proliferation inhibitory effect compared with Gemcitabine: Gemcitabine set to 0, negative = less inhibition than Gemcitabine; for inhibition at 1 µM: Homo sapiens, 120 h, concentration not given (primary screen 1 microM), mean±SD, read-out: proliferation inhibitory effect compared with 0.1 % DMSO vehicle control group
Method: as §1

[3] = system: MCF-7 breast cancer cell line; experiment: Tetrazolium dye proliferation (WST-1) assay, MCF-7; format: cell-based; parameters: proliferation inhibitory effect compared with Gemcitabine: concentration or dose not given beside the values; settings: 5 days incubation; for proliferation inhibitory effect compared with Gemcitabine: Gemcitabine set to 0, negative = less inhibition than Gemcitabine; for inhibition at 1 µM: Homo sapiens, MCF7, 120 h, concentration not given (primary screen 1 microM), mean±SD, read-out: proliferation inhibitory effect compared with 0.1 % DMSO vehicle control group
Method: as §1

acute leukaemia = settings: up to 9 patients treated; cited from earlier work
pancreatic cancer cells = experiment: Effect on other cancer cells (pancreatic); format: cell-based; settings: other type of cancer cells such as pancreatic cancer cells
[4] = system: RC and S790 mouse mammary carcinomas; settings: considered non active; cited from earlier work

Compound	inhibition at 1 µM [1]	proliferation inhibitory effect compared with Gemcitabine [2]	inhibition at 1 µM [2]	proliferation inhibitory effect compared with Gemcitabine [3]	inhibition at 1 µM [3]	antitumour activity in man (acute leukaemia)	effect on pancreatic cancer cells (pancreatic cancer cells)	tumor growth inhibition [4]
Nc1ccn([C@@H]2O[C@H](CO)[C@@H](O)C2(F)F)c(=O)n1 [Gemcitabine, 2',2'-difluorodeoxycytidine]	98.8 ± 0.3%	0%	71.2 ± 0.8%	0%	80 ± 3.7%			
Nc1ccn([C@@H]2O[C@H](CO)[C@@H](O)[C@@H]2O)c(=O)n1 [Ara-C]	66.5 ± 1.8%		50.1 ± 3.4%		78.3 ± 3.9%			
O=c1[nH]c(=O)n([C@H]2C[C@H](O)[C@@H](CO)O2)cc1F [Floxuridine]	88.3 ± 0.6%	-34.7±3.1%	58.3 ± 1%	-50.4±35.6%	66.2 ± 8%			
5-Iodo-2'-deoxyuridine (Idoxuridine) [Compound F]				-174.8±33.9%				
Nc1ncnc2[nH]ncc12 [Compound I, 4-Aminopyrazolo[3,4-d]pyrimidine]	18 ± 2.1%	93.1±0.7%	97.9 ± 0.5%	93.8±2.4%	98.6 ± 0.5%	did not demonstrate any antitumour activity in man	no effect was detected	10%
5-Bromo-2'-deoxyuridine (Broxuridine) [Compound E]				-221.1±50.3%				
